# Reference: patent US20150105252A1, “SUBSTITUTED PYRAZOLES AS HERBICIDES” (E I DU PONT DE NEMOURS AND COMPANY, priority 2013, published 2015)
# Tests used:
# morningglory [1] = experiment: Test A postemergence; type: in vivo, Ipomoea spp.
# How it was run: (§1)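 Pre- and postemergence greenhouse test; loam+sand; cpd in non-phytotox. solvent/surfactant; post at 1–2 leaf, 2–10 cm; visual score ~10 d, 0 = none, 100 = complete control.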
# oilseed rape [2] = experiment: Test C preemergence; type: in vivo, Brassica napus; conditions: for Oilseed Rape plant response rating / Plant response rating, Oilseed Rape: preemergence; for Plant response rating, Oilseed Rape: 125 g ai/ha, scale 0 to 100, 0 = no effect, 100 = complete control
# How it was run: (§2)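 Visual rating, 0–100 scale (0 no effect, 100 complete control), vs untreated controls after 13–15 d greenhouse. Pre: seeds in loam/sand, treated at sowing. Post: plants in peat-based mix, 1- to 4-leaf (2–18 cm). Solvent + surfactant formulation, non-phytotoxic.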
# soybean = experiment: Test C postemergence; type: in vivo, Glycine max; conditions: for Plant response rating (scale of 0 to 100 where 0 is no effect and 100 is complete control), Soybean: Postemergence, 31 g ai/ha, visually evaluated after 13 to 15 days; for Soybean plant response rating / Plant response rating, Soybean: postemergence
# How it was run: as §2
# johnsongrass = experiment: Test C preemergence; type: in vivo, Sorghum halepense; conditions: for Johnsongrass plant response rating / Plant response rating, Johnsongrass: preemergence; for Plant response rating, Johnsongrass: 125 g ai/ha, scale 0 to 100, 0 = no effect, 100 = complete control
# How it was run: as §2
# waterhemp = experiment: Test C postemergence; type: in vivo, Amaranthus rudis; conditions: for Plant response rating (scale of 0 to 100 where 0 is no effect and 100 is complete control), Waterhemp: Postemergence, 31 g ai/ha, visually evaluated after 13 to 15 days; for Waterhemp plant response rating / Plant response rating, Waterhemp: postemergence; for Waterhemp plant response rating: scale 0 to 100
# How it was run: as §2
# velvetleaf = experiment: Test C postemergence; type: in vivo, Abutilon theophrasti; conditions: for Plant response rating (scale of 0 to 100 where 0 is no effect and 100 is complete control), Velvetleaf: Postemergence, 31 g ai/ha, visually evaluated after 13 to 15 days; for Velvetleaf plant response rating / Plant response rating, Velvetleaf: postemergence; for Velvetleaf plant response rating: scale 0 to 100
# How it was run: as §2
# morningglory [3] = experiment: Test C preemergence; type: in vivo, Ipomoea coccinea; conditions: for Morningglory plant response rating / Plant response rating, Morningglory: preemergence; for Plant response rating, Morningglory: 125 g ai/ha, scale 0 to 100, 0 = no effect, 100 = complete control
# How it was run: as §2
# ducksalad = experiment: Test B flood; type: in vivo, Heteranthera limosa; conditions: 250 g ai/ha, visual rating on 0 to 100 scale (0 no effect, 100 complete control), 13 to 15 days
# How it was run: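 Visual ratings (0 = no effect, 100 = complete control) versus untreated controls were taken 13–15 days after treatment of greenhouse plants. Treatment was added to paddy water held at 3 cm depth on 2-leaf-stage seedlings.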
# oilseed rape [4] = experiment: Test C postemergence; type: in vivo, Brassica napus; conditions: for Plant response rating (scale of 0 to 100 where 0 is no effect and 100 is complete control), Oilseed Rape: Postemergence, 31 g ai/ha, visually evaluated after 13 to 15 days; for Oilseed Rape plant response rating / Plant response rating, Oilseed Rape: postemergence; for Oilseed Rape plant response rating: 62 g ai/ha, scale 0 to 100
# How it was run: as §2
# crabgrass, large [5] = experiment: Test C preemergence; type: in vivo, Digitaria sanguinalis; conditions: for Crabgrass, Large plant response rating / Plant response rating, Crabgrass, Large: preemergence; for Plant response rating, Crabgrass, Large: 125 g ai/ha, scale 0 to 100, 0 = no effect, 100 = complete control
# How it was run: as §2
# crabgrass, large [6] = experiment: Test C postemergence; type: in vivo, Digitaria sanguinalis; conditions: for Plant response rating (scale of 0 to 100 where 0 is no effect and 100 is complete control), Crabgrass, Large: Postemergence, 31 g ai/ha, visually evaluated after 13 to 15 days; for Crabgrass, Large plant response rating / Plant response rating, Crabgrass, Large: postemergence; for Crabgrass, Large plant response rating: 62 g ai/ha, scale 0 to 100
# How it was run: as §2
# blackgrass = experiment: Test C preemergence; type: in vivo, Alopecurus myosuroides; conditions: for Blackgrass plant response rating / Plant response rating, Blackgrass: preemergence; for Plant response rating, Blackgrass: 125 g ai/ha, scale 0 to 100, 0 = no effect, 100 = complete control
# How it was run: as §2
# foxtail, giant = experiment: Test A postemergence; type: in vivo, Setaria faberii
# How it was run: as §1
# [7] = Postemergence, 500 g ai/ha, 0 to 100 scale (0 no effect, 100 complete control)
# [8] = postemergence, 125 g ai/ha, about 10 days, visual rating on 0 to 100 scale (0 no effect, 100 complete control)
# [9] = 31 g ai/ha, visual rating, scale 0 to 100 (0 no effect, 100 complete control), 13 to 15 days
# [10] = 62 g ai/ha, scale 0 to 100 (0 no effect, 100 complete control), 13 to 15 days
# [11] = 250 g ai/ha, scale 0 to 100 (0 no effect, 100 complete control)
# [12] = 125 g ai/ha, scale 0 to 100, 0 no effect, 100 complete control
# [13] = 250 g ai/ha, scale 0 to 100, 0 is no effect, 100 is complete control
smiles,measurement,setting,value
CCONC(=O)c1cc(CC)n(Cc2ccnc(OC(F)F)c2)n1 [Compound 131],Morningglory plant response rating,morningglory [1]; [7],100
same,Morningglory plant response rating,morningglory [1]; [8],90
same,"Plant response rating (scale of 0 to 100), Oilseed Rape","oilseed rape [2]; Preemergence, 250 g ai/ha",100
same,Oilseed Rape plant response rating,oilseed rape [2]; [9],95
same,Oilseed Rape plant response rating,oilseed rape [2]; [10],100
same,"Plant response rating, Oilseed Rape",oilseed rape [2]; 13 to 15 days,98
same,"Plant response rating (scale of 0 to 100 where 0 is no effect and 100 is complete control), Soybean",soybean,20
same,Soybean plant response rating,"soybean; 62 g ai/ha, scale 0 to 100",25
same,"Plant response rating, Soybean",soybean; [11],80
same,"Plant response rating, Soybean",soybean; [12],35
same,"Plant response rating (scale of 0 to 100), Johnsongrass","johnsongrass; Preemergence, 250 g ai/ha",95
same,Johnsongrass plant response rating,johnsongrass; [9],20
same,Johnsongrass plant response rating,johnsongrass; [10],65
same,"Plant response rating, Johnsongrass",johnsongrass; 13 to 15 days,85
same,"Plant response rating (scale of 0 to 100 where 0 is no effect and 100 is complete control), Waterhemp",waterhemp,55
same,Waterhemp plant response rating,waterhemp; 62 g ai/ha,55
same,"Plant response rating, Waterhemp",waterhemp; [11],80
same,"Plant response rating, Waterhemp",waterhemp; [12],65
same,"Plant response rating (scale of 0 to 100 where 0 is no effect and 100 is complete control), Velvetleaf",velvetleaf,5
same,Velvetleaf plant response rating,velvetleaf; 62 g ai/ha,25
same,"Plant response rating, Velvetleaf",velvetleaf; [11],55
same,"Plant response rating, Velvetleaf",velvetleaf; [12],35
same,"Plant response rating (scale of 0 to 100), Morningglory","morningglory [3]; Preemergence, 250 g ai/ha",100
same,Morningglory plant response rating,morningglory [3]; [9],40
same,Morningglory plant response rating,morningglory [3]; [10],100
same,"Plant response rating, Morningglory",morningglory [3]; 13 to 15 days,100
same,"Plant response rating, Ducksalad",ducksalad,90
same,"Plant response rating (scale of 0 to 100 where 0 is no effect and 100 is complete control), Oilseed Rape",oilseed rape [4],30
same,Oilseed Rape plant response rating,oilseed rape [4],35
same,"Plant response rating, Oilseed Rape",oilseed rape [4]; [11],60
same,"Plant response rating, Oilseed Rape",oilseed rape [4]; [12],40
same,"Plant response rating (scale of 0 to 100), Crabgrass, Large","crabgrass, large [5]; Preemergence, 250 g ai/ha",100
same,"Crabgrass, Large plant response rating","crabgrass, large [5]; [9]",90
same,"Crabgrass, Large plant response rating","crabgrass, large [5]; [10]",100
same,"Plant response rating, Crabgrass, Large","crabgrass, large [5]; 13 to 15 days",100
same,"Plant response rating (scale of 0 to 100 where 0 is no effect and 100 is complete control), Crabgrass, Large","crabgrass, large [6]",5
same,"Crabgrass, Large plant response rating","crabgrass, large [6]",5
same,"Plant response rating, Crabgrass, Large","crabgrass, large [6]; [11]",40
same,"Plant response rating, Crabgrass, Large","crabgrass, large [6]; [12]",15
same,"Plant response rating (scale of 0 to 100), Blackgrass","blackgrass; Preemergence, 250 g ai/ha",98
same,Blackgrass plant response rating,blackgrass; [9],40
same,Blackgrass plant response rating,blackgrass; [10],80
same,"Plant response rating, Blackgrass",blackgrass; 13 to 15 days,95
same,"Foxtail, Giant plant response rating","foxtail, giant; [7]",90
same,"Foxtail, Giant plant response rating","foxtail, giant; [8]",80
O=C(NC1CC1)c1cc(CCCl)n(Cc2ccnc(C(F)(F)F)c2)n1 [Compound 144],Morningglory plant response rating,morningglory [1]; [7],90
same,Morningglory plant response rating,morningglory [1]; [8],80
same,Oilseed Rape plant response rating,oilseed rape [2]; [9],80
same,Oilseed Rape plant response rating,oilseed rape [2]; [10],95
same,"Plant response rating, Oilseed Rape",oilseed rape [2]; 13 to 15 days,100
same,Oilseed Rape plant response rating,oilseed rape [2]; [13],100
same,"Plant response rating (scale of 0 to 100 where 0 is no effect and 100 is complete control), Soybean",soybean,35
same,"Plant response rating, Soybean",soybean; [11],95
same,Soybean plant response rating,soybean; [12],75
same,Johnsongrass plant response rating,johnsongrass; [9],0
same,Johnsongrass plant response rating,johnsongrass; [10],35
same,"Plant response rating, Johnsongrass",johnsongrass; 13 to 15 days,75
same,Johnsongrass plant response rating,johnsongrass; [13],100
same,"Plant response rating (scale of 0 to 100 where 0 is no effect and 100 is complete control), Waterhemp",waterhemp,65
same,"Plant response rating, Waterhemp",waterhemp; [11],75
same,Waterhemp plant response rating,waterhemp,75
same,"Plant response rating (scale of 0 to 100 where 0 is no effect and 100 is complete control), Velvetleaf",velvetleaf,15
same,"Plant response rating, Velvetleaf",velvetleaf; [11],50
same,Velvetleaf plant response rating,velvetleaf,35
same,Morningglory plant response rating,morningglory [3]; [9],60
same,Morningglory plant response rating,morningglory [3]; [10],100
same,"Plant response rating, Morningglory",morningglory [3]; 13 to 15 days,100
same,Morningglory plant response rating,morningglory [3]; [13],100
same,"Plant response rating, Ducksalad",ducksalad,95
same,"Plant response rating (scale of 0 to 100 where 0 is no effect and 100 is complete control), Oilseed Rape",oilseed rape [4],50
same,Oilseed Rape plant response rating,oilseed rape [4],50
same,"Plant response rating, Oilseed Rape",oilseed rape [4]; [11],65
same,"Plant response rating, Oilseed Rape",oilseed rape [4]; [12],60
same,"Crabgrass, Large plant response rating","crabgrass, large [5]; [9]",100
same,"Crabgrass, Large plant response rating","crabgrass, large [5]; [10]",100
same,"Plant response rating, Crabgrass, Large","crabgrass, large [5]; 13 to 15 days",100
same,"Crabgrass, Large plant response rating","crabgrass, large [5]; [13]",100
same,"Plant response rating (scale of 0 to 100 where 0 is no effect and 100 is complete control), Crabgrass, Large","crabgrass, large [6]",10
same,"Crabgrass, Large plant response rating","crabgrass, large [6]",10
same,"Plant response rating, Crabgrass, Large","crabgrass, large [6]; [11]",55
same,"Plant response rating, Crabgrass, Large","crabgrass, large [6]; [12]",10
same,Blackgrass plant response rating,blackgrass; [9],40
same,Blackgrass plant response rating,blackgrass; [10],40
same,"Plant response rating, Blackgrass",blackgrass; 13 to 15 days,90
same,Blackgrass plant response rating,blackgrass; [13],90
same,"Foxtail, Giant plant response rating","foxtail, giant; [7]",90
same,"Foxtail, Giant plant response rating","foxtail, giant; [8]",90
CCCc1cc(C(=O)NC(C)C)nn1Cc1cc(C(F)(F)F)nn1C [Compound 201],Morningglory plant response rating,"morningglory [1]; Postemergence, 125 g ai/ha, 0 to 100 scale, 0 no effect, 100 complete control",90
same,Morningglory plant response rating,morningglory [1]; [7],100
same,Oilseed Rape plant response rating,oilseed rape [2]; [9],100
same,Oilseed Rape plant response rating,oilseed rape [2]; [10],100
same,"Plant response rating, Oilseed Rape",oilseed rape [2]; 13 to 15 days,100
same,Oilseed Rape plant response rating,oilseed rape [2]; [13],95
same,"Plant response rating, Soybean",soybean; [11],98
same,Soybean plant response rating,soybean; [12],95
same,Johnsongrass plant response rating,johnsongrass; [9],85
same,Johnsongrass plant response rating,johnsongrass; [10],85
same,"Plant response rating, Johnsongrass",johnsongrass; 13 to 15 days,100
same,Johnsongrass plant response rating,johnsongrass; [13],100
same,"Plant response rating, Waterhemp",waterhemp; [11],85
same,Waterhemp plant response rating,waterhemp,70
same,"Plant response rating, Velvetleaf",velvetleaf; [11],80
same,Velvetleaf plant response rating,velvetleaf,60
same,Morningglory plant response rating,morningglory [3]; [9],85
same,Morningglory plant response rating,morningglory [3]; [10],100
same,"Plant response rating, Morningglory",morningglory [3]; 13 to 15 days,100
same,Morningglory plant response rating,morningglory [3]; [13],100
same,"Plant response rating, Ducksalad",ducksalad,95
same,Oilseed Rape plant response rating,oilseed rape [4],60
same,"Plant response rating, Oilseed Rape",oilseed rape [4]; [11],80
same,"Plant response rating, Oilseed Rape",oilseed rape [4]; [12],50
same,"Crabgrass, Large plant response rating","crabgrass, large [5]; [9]",100
same,"Crabgrass, Large plant response rating","crabgrass, large [5]; [10]",100
same,"Plant response rating, Crabgrass, Large","crabgrass, large [5]; 13 to 15 days",100
same,"Crabgrass, Large plant response rating","crabgrass, large [5]; [13]",100
same,"Plant response rating (scale of 0 to 100 where 0 is no effect and 100 is complete control), Crabgrass, Large","crabgrass, large [6]",15
same,"Crabgrass, Large plant response rating","crabgrass, large [6]",10
same,"Plant response rating, Crabgrass, Large","crabgrass, large [6]; [11]",50
same,"Plant response rating, Crabgrass, Large","crabgrass, large [6]; [12]",15
same,Blackgrass plant response rating,blackgrass; [9],85
same,Blackgrass plant response rating,blackgrass; [10],90
same,"Plant response rating, Blackgrass",blackgrass; 13 to 15 days,90
same,Blackgrass plant response rating,blackgrass; [13],90
same,"Foxtail, Giant plant response rating","foxtail, giant; [7]",100
same,"Foxtail, Giant plant response rating","foxtail, giant; [8]",90
